The values below come from patent US9145372B2, “Pyridazine derivatives, compositions and methods for treating cognitive impairment” (AGENEBIO, INC., priority 2010, dated 2015).

“Also recorded” adds a separate entry of the source.

Assay [1] relates to aged-impaired (AI) rats. Put plainly: Morris water maze behavioral task after ICV infusion. Format: in vivo, rat. The conditions noted are these: 100 μg ICV. Here is the method: The effects of 6,6 dimethyl-3-(3-hydroxypropyl)thio-1-(thiazol-2-yl)-6,7-dihydro-2-benzothiophen-4(5H)-one on the in vivo spatial memory retention of aged-impaired (AI) rats were assessed in a Morris water maze behavioral task. A water maze is a pool surrounded with a novel set of patterns relative to the maze.
Cognitively impaired aged rats were implanted unilaterally with a cannula into the lateral ventricle. Stereotaxic coordinates were 1.0 mm posterior to bregma, 1.5 mm lateral to midline, and 3.5 mm ventral to the skull surface. After about a week of recovery, the rats were pre-trained in a water maze for 2 days (6 trials per day) to locate a submerged escape platform hidden underneath the surface of the pool, in which the escape platform location varied from day to day. No intracerebroventricular (ICV) infusion was given during pre-training
After pre-training, rats received ICV infusion of either 100 μg 6,6 dimethyl-3-(3-hydroxypropyl)thio-1-(thiazol-2-yl)-6,7-dihydro-2-benzothiophen-4(5H)-one (n=6) in 5 μl DMSO or vehicle DMSO (n=5) 40 min prior to water maze training and testing. Training consisted of 8 trials per day for 2 days where the hidden escape platform remained in the same location. Rats were given 60 seconds to locate the platform with a 60 seconds inter-trial interval. The rats were given a probe test (120 seconds) 24 hr after the end of training where the escape platform was removed. During the training, there were 4 blocks, where each block had 4 training trials.
Rats treated with vehicle and 6,6 dimethyl-3-(3-hydroxypropyl)thio-1-(thiazol-2-yl)-6,7-dihydro-2-benzothiophen-4(5H)-one found the escape platform about the same time at the beginning of training (block 1). In this block of training, rats treated with vehicle and 6,6 dimethyl-3-(3-hydroxypropyl)thio-1-(thiazol-2-yl)-6,7-dihydro-2-benzothiophen-4(5H)-one both spent about 24 seconds to find the escape platform. However, rats treated with 6,6 dimethyl-3-(3-hydroxypropyl)thio-1-(thiazol-2-yl)-6,7-dihydro-2-benzothiophen-4(5H)-one were able to find the platform more proficiently (i.e., quicker) at the end of training (block 4) than those treated with vehicle alone. In block 4, rats treated with 6,6 dimethyl-3-(3-hydroxypropyl)thio-1-(thiazol-2-yl)-6,7-dihydro-2-benzothiophen-4(5H)-one spent about 9.6 seconds to find the escape platform, while rats treated with vehicle spent about 19.69 seconds.
During a test trial 24 hr after training, the escape platform was removed. The search/swim pattern of the rats was used to measure whether the rats remember where the escape platform was located during pre-trial training in order to test for the long-term memory of the rats. […]

Assay [2] concerns aged-impaired (AI) rats. Put plainly: Radial Arm Maze (RAM) behavioral task, spatial memory retention. In kind it is in vivo, rat. The conditions noted are these: four-hour delay RAM. Here is the method:
The effects of methyl 3,5-diphenylpyridazine-4-carboxylate on the in vivo spatial memory retention of aged-impaired (AI) rats were assessed in a Radial Arm Maze (RAM) behavioral task using vehicle control and four different dosage levels of methyl 3,5-diphenylpyridazine-4-carboxylate (0.1 mg/kg, 0.3 mg/kg, 1 mg/kg and 3 mg/kg, ip). RAM behavioral tasks were performed on eight AI rats. All five treatment conditions (vehicle and four dosage levels) were tested on all eight rats.
The RAM apparatus used consisted of eight equidistantly-spaced arms. An elevated maze arm (7 cm width×75 cm length) projected from each facet of an octagonal center platform (30 cm diameter, 51.5 cm height). Clear side walls on the arms were 10 cm high and were angled at 65° to form a trough. A food well (4 cm diameter, 2 cm deep) was located at the distal end of each arm. Froot Loops™ (Kellogg Company) were used as rewards. Blocks constructed of Plexiglas™ (30 cm height×12 cm width) could be positioned to prevent entry to any arm. Numerous extra maze cues surrounding the apparatus were also provided.
The AI rats were initially subjected to a pre-training test (Chappell et al. Neuropharmacology 37: 481-487, 1998). The pre-training test consisted of a habituation phase (4 days), a training phase on the standard win-shift task (18 days) and another training phase (14 days) in which a brief delay was imposed between presentation of a subset of arms designated by the experimenter (e.g., 5 arms available and 3 arms blocked) and completion of the eight-arm win-shift task (i.e., with all eight arms available).
In the habituation phase, rats were familiarized to the maze for an 8-minute session on four consecutive days. In each of these sessions, food rewards were scattered on the RAM, initially on the center platform and arms and then progressively confined to the arms. After this habituation phase, a standard training protocol was used, in which a food pellet was located at the end of each arm. Rats received one trial each day for 18 days. Each daily trial terminated when all eight food pellets had been obtained or when either 16 choices were made or 15 minutes had elapsed. After completion of this training phase, a second training phase was carried out in which the memory demand was increased by imposing a brief delay during the trial. At the beginning of each trial, three arms of the eight-arm maze were blocked. Rats were allowed to obtain food on the five arms to which access was permitted during this initial “information phase” of the trial. Rats were then removed from the maze for 60 seconds, during which time the barriers on the maze were removed, thus allowing access to all eight arms. […]

Assay [3] deals with GABAA α5 receptor (Rattus norvegicus, UniProt P18508+P19969). Put plainly: GABAA α5 receptor occupancy in vivo with Ro 15-4513 tracer (hippocampus vs cerebellum). The conditions noted are these: i.v. An excerpt: Adult male Long Evans rats (265-295 g, Charles River, Portage, Mich., n=4/group) were used for GABAA α5 receptor occupancy studies. Rats were individually housed in ventilated stainless-steel racks on a 12:12 light/dark cycle. Food and water were available ad libitum.
Chain of GABAA α5 receptor (P19969 32-464 limits assumed): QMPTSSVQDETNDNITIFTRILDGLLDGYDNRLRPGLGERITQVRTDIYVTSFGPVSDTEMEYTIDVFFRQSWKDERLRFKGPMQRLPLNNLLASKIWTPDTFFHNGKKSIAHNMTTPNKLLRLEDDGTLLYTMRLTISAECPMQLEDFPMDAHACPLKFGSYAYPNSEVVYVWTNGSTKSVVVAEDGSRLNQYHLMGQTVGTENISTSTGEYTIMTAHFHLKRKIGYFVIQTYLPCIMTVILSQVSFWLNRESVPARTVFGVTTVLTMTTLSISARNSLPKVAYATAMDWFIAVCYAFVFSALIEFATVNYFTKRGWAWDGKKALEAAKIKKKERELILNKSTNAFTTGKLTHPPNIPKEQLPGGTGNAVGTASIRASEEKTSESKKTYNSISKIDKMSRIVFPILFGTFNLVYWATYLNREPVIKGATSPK
Chain of GABAA α5 receptor (P18508 39-466): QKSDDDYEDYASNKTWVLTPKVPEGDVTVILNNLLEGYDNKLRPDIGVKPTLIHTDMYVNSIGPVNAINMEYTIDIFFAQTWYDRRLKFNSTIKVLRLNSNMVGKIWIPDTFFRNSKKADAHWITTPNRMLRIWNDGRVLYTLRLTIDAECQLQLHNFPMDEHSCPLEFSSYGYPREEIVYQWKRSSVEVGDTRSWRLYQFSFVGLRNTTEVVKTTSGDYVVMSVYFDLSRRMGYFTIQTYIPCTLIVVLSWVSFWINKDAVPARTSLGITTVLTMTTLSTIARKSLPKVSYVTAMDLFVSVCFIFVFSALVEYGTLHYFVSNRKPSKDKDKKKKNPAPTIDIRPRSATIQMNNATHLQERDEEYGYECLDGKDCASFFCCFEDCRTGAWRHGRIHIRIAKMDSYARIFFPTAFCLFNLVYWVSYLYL
Chain of GABAA α5 receptor (P63079 26-473 partner): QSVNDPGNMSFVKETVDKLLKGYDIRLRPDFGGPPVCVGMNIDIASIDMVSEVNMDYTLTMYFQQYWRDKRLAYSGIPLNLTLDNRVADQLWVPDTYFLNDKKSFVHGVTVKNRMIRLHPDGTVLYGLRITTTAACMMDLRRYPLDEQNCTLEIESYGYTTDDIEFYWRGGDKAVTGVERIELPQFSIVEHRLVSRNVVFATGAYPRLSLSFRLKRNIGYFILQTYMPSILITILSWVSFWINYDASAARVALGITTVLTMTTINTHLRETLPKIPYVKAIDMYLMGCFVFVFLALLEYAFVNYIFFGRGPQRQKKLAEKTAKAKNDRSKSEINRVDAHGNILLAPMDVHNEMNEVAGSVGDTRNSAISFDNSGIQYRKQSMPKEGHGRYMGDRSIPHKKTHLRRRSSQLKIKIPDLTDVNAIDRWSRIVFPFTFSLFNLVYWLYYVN
Ro 15-4513 was used as a receptor occupancy (RO) tracer for GABAA α5 receptor sites in the hippocampus and cerebellum. Ro 15-4513 was chosen as the tracer based on its selectivity for GABAA α5 receptors relative to other alpha subunit containing GABAA receptors and because it has been successfully used for GABAA α5 RO studies in animals and humans (see, e.g., Lingford-Hughes et al., J. Cereb. Blood Flow Metab. 22:878-89 (2002); Pym et al, Br. J. Pharmacol. 146: 817-825 (2005); and Maeda et al., Synapse 47: 200-208 (2003)). Ro 15-4513 (1 μg/kg), was dissolved in 25% hydroxyl-propyl beta-cyclodextrin and administered i.v. 20′ prior to the RO evaluations. Methyl 3,5-diphenylpyridazine-4-carboxylate (0.1-10 mg/kg) was synthesized by Nox Pharmaceuticals (India) and was dissolved in 25% hydroxyl-propyl beta-cyclodextrin and administered i.v. 15′ prior to tracer injection.
The rats were sacrificed by cervical dislocation 20′ post tracer injection. The whole brain was rapidly removed, and lightly rinsed with sterile water. Trunk blood was collected in EDTA coated eppendorf tubes and stored on wet ice until study completion. Hippocampus and cerebellum were dissected and stored in 1.5 ml eppendorf tubes, and placed on wet ice until tissue extraction. In a drug naïve rat, six cortical brain tissues samples were collected for use in generating blank and standard curve samples.
Acetonitrile containing 0.1% formic acid was added to each sample at a volume of four times the weight of the tissue sample. For the standard curve (0.1-30 ng/g) samples, a calculated volume of standard reduced the volume of acetonitrile. The sample was homogenized (FastPrep-24, Lysing Matrix D; 5.5 m/s, for 60 seconds or 7-8 watts power using sonic probe dismembrator; Fisher Scientific) and centrifuged for 16-minutes at 14,000 rpm. The (100 μl) supernatant solution was diluted by 300 μl of sterile water (pH 6.5). This solution was then mixed thoroughly and analyzed via LC/MS/MS for […] (tracer) and methyl 3,5-diphenylpyridazine-4-carboxylate.
Receptor occupancy was determined by the ratio method which compared occupancy in the hippocampus (a region of high GABAA α5 receptor density) with occupancy in the cerebellum (a region with low GABAA α5 receptor density) and additionally by a high dose of the GABAA α5 negative allosteric modulator L-655,708 (10 mg/kg, i.v.) to define full occupancy.

Setting [4] is: probe test 24 hr after training.

In the case of `CC1(C)CC(=O)c2c(SCCCO)sc(-c3nccs3)c2C1` [6,6 dimethyl-3-(3-hydroxypropyl)thio-1-(thiazol-2-yl)-6,7-dihydro-2-benzothiophen-4(5H)-one], the “time to find the escape platform (escape latency), block 1” value in assay [1] (beginning of training) was “about 24 seconds”. Also, in assay [1] (end of training), the “time to find the escape platform (escape latency), block 4” value is “about 9.6 seconds”. In assay [1] (setting [4]), the “number of crossings of target annulus compared to opposite annulus” value is listed as “more often” and the “time in target annulus compared to opposite annulus” value is “significantly more time in the target annulus”.
Consider `CCOC(=O)c1ncn2c1Cn1c(C)nnc1-c1cc(OC)ccc1-2` [ethyl 3-methoxy-7-methyl-9H-benzo[f]imidazo[1,5-a][1,2,4]triazolo[4,3-d][1,4]diazepine-10-carboxylate], for which the “memory performance relative to vehicle control” value in assay [2] (3 mg/kg) and in assay [2] (10 mg/kg) was “significantly improved memory performance” in each case. In addition, the “Ro 15-4513 binding in hippocampus” value in assay [3] (0.01-10 mg/kg) is “blocked; also recorded: reduced”. Also, the “cerebellum levels (binding) of Ro 15-4513” value in assay [3] (0.01-10 mg/kg) was “did not affect; also recorded: without affecting”. For the same molecule, the “GABAA α5 receptor occupancy” value in assay [3] (10 mg/kg) is recorded as over 90%.
